Measurements as given in patent publication US5391800A, “Method for inhibition of cell motility by sphingosine-1-phosphate, its derivatives and mimetics and method of synthesizing sphingosine-1-phosphate and its derivatives” (The Biomembrane Institute, priority 1993, dated 1995).

What was measured:
[1] = test system: PKC of B16/F1 melanoma cells; assay: PKC activity of B16/F1 melanoma cells (32P incorporation into histone IIIS); format: biochemical, mouse; conditions: concentration not given
Protocol: Effects of SPN derivatives on protein kinase C activity and cell growth of B16/F1 cells was also investigated. […] Toxicity of these compounds to B16/F1 cells and human neutrophils was also examined using a trypan blue exclusion assay after 1 hour incubation with the compounds.
*Mean ± S.E. (n = 3). For controls (defined as 100%), PKC activity was
33225 cpm per tube per 20 min, as measured by ^32 P incorporation int

B16/F1 melanoma cells [2] = assay: Chemoinvasion of B16/F1 cells through thick MATRI-GEL layer on transwell filter; format: cell-based, mouse; conditions: percent relative to control; mean ± S.E., n = 3 or 4; concentration not given; 4200 min
Protocol: (§1) The assays for determining chemotactic cell motility and chemoinvasion can be performed using transwell plates with a polycarbonate membrane filter (pore size 8 μm) (Costar Scientific, Cambridge, Mass.). Aliguots, e.g., 50 μl, of an aqueous solution of MATRI-GEL (Collaborative Research, Bedford, Mass.) containing SPN-1-P or other inhibitor (e.g., 20 μg/ml for chemotactic motility assay or 200 μg/ml for chemoinvasion assay), is added to each well and dried overnight. The filter is then fitted onto the lower chamber plate. The lower chamber can contain conditioned medium (CM) (i.e., medium used for splenic stromal cell culture, and containing motility factor secreted by these cells), e.g., 0.6 ml, with or without SPN-1-P or other inhibitor. To the upper chamber is added, e.g., about 100 μl, of cell suspension (5×10^4 cells/ml for invasion assay, 5×10^5 cells/ml for motility assay), which is then incubated in 5% CO2 at 37° C. for 70-72 hours (invasion assay) or 20 hours (motility assay). After incubation, cells remaining in the upper chamber are wiped off with a cotton swab, and cells which had migrated to the lower chamber side of the filter are fixed in methanol for 30 seconds and stained with 0.05% toluidine blue. The filter is removed, the stain is solubilized in 10% acetic acid (e.g., 0.1 ml for invasion assay, 0.5 ml for motility assay), and color intensity (optical density) is quantitated by ELISA reading at 630 nm. Using SPN-1-P, a linear relationship was observed between cell number and toluidine blue optical density (FIG. 7).
(§2) Assays were performed using transwell plates with polycarbonate membrane filters (pore size 8 μm) (Costar Scientific, Cambridge, Mass.). 50 μl aliguots of an aqueous solution of MATRI-GEL (Collaborative Research, Bedford, Mass.) containing 20 μg/ml (for chemotactic motility assay) or 200 μg/ml (for chemoinvasion assay) were added to each well and dried overnight. The filter was fitted onto the lower chamber plate. The lower chamber contained 0.6 ml conditioned medium (CM) (i.e., medium used for splenic stromal cell culture, and containing motility factor secreted by these cells) with or without the suspected inhibitor. To the upper chamber was added 100 μl of cell suspension (5×10^4 cells/ml for invasion assay, 5×10^5 cells/ml for motility assay), which was then incubated in 5% CO2 at 37° C. for 70-72 hours (invasion assay) or 20 hours (motility assay). After incubation, cells remaining in the upper chamber were wiped off with a cotton swab, and cells which had migrated to the lower chamber side of the filter were fixed in methanol for 30 seconds and stained with 0.05% toluidine blue. The filter was removed, the stain was solubilized in 10% acetic acid (0.1 ml for invasion assay, 0.5 ml for motility assay), and color intensity (optical density) was quantitated by ELISA reading at 630 nm. A linear relationship was observed between cell number and toluidine blue optical density (FIG. 7.).
Chemoinvasion was measured by the ability of tumor cells in CM (as described above) to migrate through a thick layer of MATRI-GEL during a prolonged incubation period (70 hours). This property is distinct from chemotactic cell motility, which involves a much shorter incubation period (20 hours) and a thin layer of MATRI-GEL. For the chemoinvasion assay, 10 μg of MATRI-GEL was applied to a polycarbonate transwell filter and migration was observed following 70 hours incubation (based on results shown in FIG. 8).

B16/F1 melanoma cells [3] = assay: Growth of B16/F1 melanoma cells (cell count after 48 hr); format: cell-based, mouse; conditions: Mus musculus, B16-F1; 10 μM; 48 hr; control = 100%; mean ± S.E., n = 3
Protocol: *Mean ± S.E. (n = 3). For controls (defined as 100%), cell number was
10^5 cells were seeded and
cultured on a 35 mm plastic dish in Dulbecco's modified Eagle's medium
containing 2% fetal bovine serum in the presence or absence of SPN
derivatives. 48 hr later, cells were counted.

B16/F1 melanoma cells [4] = assay: Chemotactic motility of B16/F1 cells through MATRI-GEL-coated transwell filter; format: cell-based, mouse; conditions: percent relative to control; mean ± S.E., n = 3 or 4; concentration not given
Protocol: as §1, §2
In experiments with different quantities of MATRI-GEL, cell migration through transwell filter was maximal with 1 μg/well was applied, and when CM was used (FIG. 8). Therefore, chemotactic cell motility, as affected by various SPN derivatives, was assayed under these conditions.
*Mean ± S.E. of percent relative to control (n = 4). Actual O.D. value
and 0.147 (HT1080). 6 × 10^4 cells were placed on a transwell
filter coated with 1.0 μg MATRIGEL in the upper chamber, and cultured
for 18 hours in the presence of CM and SPN1-P in the lower chamber.

human neutrophils = assay: Phagokinetic activity of human neutrophils on gold sol-coated plates; format: cell-based; conditions: 4.5 μM; 2 hours; mean ± S.D.; control 6.3 ± 2.3
Protocol: Phagokinetic activity is measured by the ability of cells to ingest foreign particles while moving. Cell motility can be estimated as the area of a phagokinetic track on gold sol particle-coated plates as previously described {Albrecht-Buehler, Cell, 11:395 (1977)}. A uniform coating of gold particles is prepared on glass coverslips precoated with bovine serum albumin, and coverslips are rinsed repeatedly to remove non-adhering or loosely-adhering gold particles. Freshly-prepared neutrophils or tumor cells detached from culture are placed in a Petri dish containing the gold sol-coated plate, and incubated for about 2 hours (for human neutrophils) or about 18 hours (for tumor cells). The coverslips are fixed for 1 hour in a 4% formaldehyde solution in phosphate-buffered saline (PBS) and mounted on microscope slides. The phagokinetic tracks are observed on a television connected to a light microscope (Nikon, Tokyo, Japan). Tracks on the television are transferred to translucent sheets, which are then photocopied. Phagokinetic activity is quantitated by cutting and weighing the swept area in the copy.
Cell motility was estimated as the area of phagokinetic track on gold sol particle-coated plates as previously described {Albrecht-Buehler, Cell, 11:395 (1977)}. A uniform coating of gold particles was prepared on glass coverslips precoated with bovine serum albumin, and the coverslips were rinsed repeatedly to remove non-adhering or loosely-adhering gold particles. Freshly-prepared neutrophils or tumor cells detached from culture were placed in a Petri dish containing the gold sol-coated plate, and incubated for 2 hours (for human neutrophils) or 18 hours (for tumor cells). The coverslips were fixed for 1 hour in 4% formaldehyde solution in phosphate-buffered saline (PBS) and mounted on microscope slides. The phagokinetic tracks were observed on a television connected to a light microscope (Nikon, Tokyo, Japan). Tracks on the television were transferred to translucent sheets, which were then photocopied. Phagokinetic activity was quantitated by cutting and weighing the swept area in the copy.
**mean ± S.D. Freshlyprepared neutrophils (1 × 10^4
cell/plate) were seeded on a coverslip precoated with gold sol particles
in the presence or absence of test compound. 2 hours later, incubation wa
terminated by adding 200 μl of 10% formaldehyde and the cleared area
was estimated as described in the text.

| Compound | PKC inhibition [1] | % invasion (B16/F1 melanoma cells [2]) [%] | activity at 10 µM (B16/F1 melanoma cells [3]) [%] | % motility (B16/F1 melanoma cells [4]) [%] | Cleared area (human neutrophils) |
| --- | --- | --- | --- | --- | --- |
| CCCCCCCCCCCCC/C=C/[C@@H](O)[C@H](CO)N(C)C [DMS, N,N-dimethylsphingosine] | in striking contrast to DMS and TMS, SPN-1-P does not inhibit PKC |  |  |  |  |
| CCCCCCCCCCCCC/C=C/[C@@H](O)[C@H](CO)NC(C)=O [N-acetyl-SPN] |  | 96 ± 14 | 102 ± 4 | 99 ± 16 |  |
| NCCO [ethanolamine] |  | 140 ± 41 |  | 85 ± 13 |  |
| NCCOP(=O)(O)O [phosphoethanolamine] |  | 160 ± 57 |  | 86 ± 20 | 5.9 ± 2.5 × 10^3 μm^2 |
| ceramide |  |  |  |  | 5.7 ± 3.0 × 10^3 μm^2 |
| ceramide monohexoside [CMH] |  | 178 ± 70 |  | 162 ± 29 |  |
| phosphatidylethanolamine |  | 104 ± 37 |  | 107 ± 18 |  |
| sphingomyelin |  | 138 ± 18 |  | 82 ± 11 |  |
